Test results taken from patent publication US11130771B2, “Prodrugs of Naltrexone, Nalmefene and derivatives thereof” (TAIWANJ PHARMACEUTICALS CO., LTD., priority 2018, dated 2021).

Test: Pharmacokinetic Measurement in BALB/c Mice (oral gavage, plasma LC-MS/MS)
Conditions: parent compound after oral administration, compared with prodrug and Naltrexone from prodrug; FIGS. 1 and 2
Method: This study tested the bioavailability of different test compounds in rats, by oral gavage administration, at prescribed dose levels.
Male BALB/c mice, body weight approximately 1925 g, were purchased from BioLASCO Taiwan Co., Ltd. and kept in the Animal Laboratory of Industrial
LC-MS/MS: ABSCIEX 4000 QTRAP LC-MS/MS System; Polarity: positive mode; Column: XBridge RP18, 3.5 μm, 4.6×20 mm; Flow rate: 0.7 mL/min; Injection volume: 10 μL; Temperature: Room temperature; Running time: 5 min.
Blood aliquots (40 μL) were collected from jugular vein catheterized BALB/c in tubes coated with K2-EDTA, mixed gently, then kept on ice and centrifuged at 7000×g for 15 minutes at 4° C. The plasma was then harvested and kept frozen at −80° C. until further processing.
The plasma samples were processed using acetonitrile precipitation and analyzed by LC-MS/MS. A plasma calibration curve was generated. […]
The spiked plasma samples were processed together with the unknown plasma samples using the same procedure. The processed plasma samples were stored at −80° C. until the LC-MS/MS analysis, at which time peak areas were recorded, and the concentrations of the test compound in the unknown plasma samples were determined using the respective calibration curve. The reportable linear range of the assay was determined, along with the lower limit of quantitation (LOQ). […]

O=C1CC[C@@]2(O)[C@H]3Cc4ccc(O)c5c4[C@@]2(CCN3CC2CC2)[C@H]1O5 [Naltrexone]
concentration in blood with respect to time: raised rapidly and reached the highest level
